Columns and labels:
α-glucosidase = α-glucosidase inhibition assay (p-NPG, 96-well microplate); assay type: biochemical; conditions: 37 °C, pH 6.86, substrate p-NPG
Protocol: The α-glucosidase inhibition assay was performed in a 96-well microplate reader method as described in a previous report. The α-glucosidase assay was performed at 37 °C with a final volume of 200 μL. […] 20 μL substrate p-nitrophenyl-α-D-glucopyranoside (p-NPG) was added to each well to start the reaction. The reaction was incubated at 37 °C for 15 min and stopped by the addition of 50 μL 0.4 M Na2CO3.

PTP1B = biological target: T1, PTP1B (Homo sapiens, UniProt P18031); experiment: PTP1B inhibitory activity (p-NPP hydrolysis); assay type: biochemical; conditions: screening concentration 100 μg/mL
T1 sequence (P18031 1-435): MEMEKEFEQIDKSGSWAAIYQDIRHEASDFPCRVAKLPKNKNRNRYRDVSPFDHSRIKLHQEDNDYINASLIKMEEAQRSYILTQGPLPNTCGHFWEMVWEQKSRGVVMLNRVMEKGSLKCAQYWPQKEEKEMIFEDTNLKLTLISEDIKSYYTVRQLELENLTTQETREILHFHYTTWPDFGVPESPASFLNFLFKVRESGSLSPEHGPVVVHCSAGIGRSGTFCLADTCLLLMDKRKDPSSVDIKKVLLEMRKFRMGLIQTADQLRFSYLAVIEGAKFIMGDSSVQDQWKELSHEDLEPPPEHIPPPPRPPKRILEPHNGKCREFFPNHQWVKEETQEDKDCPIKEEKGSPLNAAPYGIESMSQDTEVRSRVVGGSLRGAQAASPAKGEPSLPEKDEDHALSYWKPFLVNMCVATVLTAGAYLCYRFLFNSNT
Protocol: PTP1B inhibitory activity was determined by measuring the enzymatic hydrolysis rate of p-nitrophenyl phosphate (p-NPP) as reported in the study. This assay was performed at 37 °C with a final volume of 100 μL, using a Tris-HCl buffer (25 mM Tris-HCl, 1 mM EDTA, 1 mM DTT, pH 7.5). […] After 30 min, the reaction ended by adding 50 μL 2.5 M NaOH solution.

| SMILES | IC50 (α-glucosidase) | PTP1B (Inhibition Ratio/%) (PTP1B) |
| --- | --- | --- |
| C=CC(C)(C)c1[nH]c2ccccc2c1C=C1NC(=O)C(CCCO)NC1=O (centres unmarked) [Compound 1, aspergiamide A] | 18.2 µM | 29% |
| C=CC(C)(C)c1[nH]c2ccccc2c1C=C1NC(=O)C2CC(O)CN2C1=O (centres unmarked) [Compound 3, aspergiamide C] | 83.9 µM | <10% |
| C=CC(C)(C)c1[nH]c2ccccc2c1C(O)C1NC(=O)C2CCCN2C1=O (centres unmarked) [Compound 4, aspergiamide D] | 144 µM | <10% |
| C=CC(C)(C)c1[nH]c2ccccc2c1C(OC)C1NC(=O)C2CCCN2C1=O (centres unmarked) [Compound 5, aspergiamide E] | 1090 µM | <10% |
| C=CC(C)(C)c1[nH]c2ccccc2c1/C=C1\NC(=O)C2(O)CCCN2C1=O (centres unmarked) [Compound 7, brevianamide Q] | 198 µM | <10% |
| C=CC(C)(C)c1[nH]c2ccccc2c1/C=C1\NC(=O)C2(OC)CCCN2C1=O (centres unmarked) [Compound 8, brevianamide R] | 364 µM | <10% |
| C=CC(C)(C)c1[nH]c2ccccc2c1/C=c1\[nH]c(=O)c2n(c1=O)CCC=2 [Compound 9, brevianamide K] | 7.6 µM | <10% |
| C=CC(C)(C)c1[nH]c2ccccc2c1/C=C1\NC(=O)C2CCCN2C1=O (centres unmarked) [Compound 10, brevianamide W] | 40.7 µM | <10% |
| O=C1N[C@@H](Cc2c[nH]c3ccccc23)C(=O)N2CCC[C@@H]12 [Compound 12, brevianamide F] | 1090 µM | <10% |
| C=CC(C)(C)c1[nH]c2ccccc2c1CC1NC(=O)C2CCCN2C1=O (stereo not drawn) [Compound 13, epi-deoxybrevianamide E] | 480 µM | <10% |

The remaining lines, values ahead:

| IC50 (α-glucosidase) | PTP1B (Inhibition Ratio/%) (PTP1B) | SMILES |
| --- | --- | --- |
| 131 µM | <10% | C=CC(C)(C)c1[nH]c2ccccc2c1C=C1NC(=O)C(CCC(=O)O)NC1=O (centres unmarked) [Compound 2, aspergiamide B] |
| 267 µM | <10% | O=C1NC(O)c2nc3ccccc3c(=O)n2C1Cc1ccc(O)cc1 (centres unmarked) [Compound 6, aspergiamide F] |
| 37.5 µM | <10% | CC(C)=CCn1cc(CC2NC(=O)C3CCCN3C2=O)c2ccccc21 [Compound 11, N-Prenyl-cyclo-L-tryptophyl-L-proline] |
| 353 µM | <10% | O=C1N[C@@H](Cc2c[nH]c3ccccc23)C(=O)N[C@H]1Cc1ccccc1 [Compound 14, cyclo-(tryptophyl-phenylalanyl)] |
| 67.8 µM | <10% | O=C1N[C@@H](O)c2nc3ccccc3c(=O)n2[C@H]1Cc1ccccc1 [Compound 15, brevianamide M] |
| 363 µM | <10% | O=C1NC(=O)[C@H](Cc2ccccc2)n2c1nc1ccccc1c2=O [Compound 16, brevianamide N] |

Source: PMC8304462, “Isolation, Structural Characterization and Antidiabetic Activity of New Diketopiperazine Alkaloids from Mangrove Endophytic Fungus Aspergillus sp. 16-5c” (Marine Drugs, 2021)
